From paper PMC7483467, “A small molecular compound CC1007 induces cross-lineage differentiation by inhibiting HDAC7 expression and HDAC7/MEF2C interaction in BCR-ABL1^− pre-B-ALL” (Cell Death & Disease, 2020)

Target: T1, MEF2C (Homo sapiens, UniProt Q06413)
T1 construct: endogenous intracellular protein in Nalm-6 and primary pre-B-ALL cells; untagged; detected by western blot
Experiment: cellular thermal shift assay (CETSA and ITDRF-CETSA), western blot read-out
Assay type: cell-based
Conditions: Nalm-6 and primary BCR-ABL1- pre-B-ALL cells; dose-response at 52 °C; endogenous MEF2C

T1 sequence (Q06413 whole entry): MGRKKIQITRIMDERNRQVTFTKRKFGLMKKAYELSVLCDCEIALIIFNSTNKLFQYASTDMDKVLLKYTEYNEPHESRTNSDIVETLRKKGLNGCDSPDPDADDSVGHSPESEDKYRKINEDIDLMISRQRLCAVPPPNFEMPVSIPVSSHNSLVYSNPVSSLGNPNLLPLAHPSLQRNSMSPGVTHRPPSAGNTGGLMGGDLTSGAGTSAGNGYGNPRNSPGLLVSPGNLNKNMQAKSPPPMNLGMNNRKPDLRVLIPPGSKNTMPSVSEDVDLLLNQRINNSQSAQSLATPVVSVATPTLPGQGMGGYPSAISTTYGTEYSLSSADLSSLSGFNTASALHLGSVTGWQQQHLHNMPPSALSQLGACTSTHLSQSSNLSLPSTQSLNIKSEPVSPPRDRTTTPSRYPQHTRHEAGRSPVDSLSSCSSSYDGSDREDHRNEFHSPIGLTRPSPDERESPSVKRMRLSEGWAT

Compound: Nc1ccccc1NC(=O)CCCCCC(=O)Nc1cccc(Br)c1 [CC1007]
- thermal stabilisation (CETSA): These data indicate that CC1007 directly interacts with intracellular MEF2C.
